The results in this text go back to patent US20090216029A1, “PROCESS FOR THE PRODUCTION OF ATORVASTATIN CALCIUM IN AMORPHOUS FORM” (priority 2008, published 2009).

Each structure is given as a SMILES string. Structures can show the parent of a compound that is named as a salt.

For the data set the following is noted: 25° C./60% relative humidity for 3 months.

Experimental: • HPLC method: • Column: Kromasil C18, 250×4.6 mm, 5 μm • Mobile phase: • A: 388.5 ml of acetonitrile+31.5 ml of tetrahydrofuran++580 ml of 0.05 molar ammonium dihydrogen orthophosphate solution in water • B: 92.5 ml of acetonitrile+7.5 ml of tetrahydrofuran+300 of methanol++100 ml of 0.05 molar ammonium dihydrogen orthophosphate solution in water • Gradient:

As for `CC(C)c1c(C(=O)Nc2ccccc2)c(-c2ccccc2)c(-c2ccc(F)cc2)n1CC[C@@H](O)C[C@@H](O)CC(=O)O` (relative stereo) [amorphous atorvastatin calcium, [R—(R*,R*)]-2-(4-fluorophenyl)-β,δ-dihydroxy-5-(1-methylethyl)-3-phenyl-4-[(phenylamino)carbonyl]-1H-pyrrole-1-heptanoic acid, calcium salt (2:1)], the “Total impurities and/or degradants after storage” value was “not more than 1.0%”.
